Patent US12459974B2, “Bicyclic peptide ligands specific for Nectin-4” (priority 2018, dated 2025)
Read-outs that look alike come from different tables or passages of the source. *1 amine or outer side, *2 acyl side, *3 side chain or, on linkers, in order; H or OH if unused. Where a SMILES comes first, the peptide text is derived from it. Bridges are numbered along the chain shown (N, C = ends). TATA = O=C(CC[*:1])N1CN(C(=O)CC[*:2])CN(C(=O)CC[*:3])C1

Target: T1, human Nectin-4 (Homo sapiens, UniProt Q96NY8)
T1 sequence (Q96NY8 32-510): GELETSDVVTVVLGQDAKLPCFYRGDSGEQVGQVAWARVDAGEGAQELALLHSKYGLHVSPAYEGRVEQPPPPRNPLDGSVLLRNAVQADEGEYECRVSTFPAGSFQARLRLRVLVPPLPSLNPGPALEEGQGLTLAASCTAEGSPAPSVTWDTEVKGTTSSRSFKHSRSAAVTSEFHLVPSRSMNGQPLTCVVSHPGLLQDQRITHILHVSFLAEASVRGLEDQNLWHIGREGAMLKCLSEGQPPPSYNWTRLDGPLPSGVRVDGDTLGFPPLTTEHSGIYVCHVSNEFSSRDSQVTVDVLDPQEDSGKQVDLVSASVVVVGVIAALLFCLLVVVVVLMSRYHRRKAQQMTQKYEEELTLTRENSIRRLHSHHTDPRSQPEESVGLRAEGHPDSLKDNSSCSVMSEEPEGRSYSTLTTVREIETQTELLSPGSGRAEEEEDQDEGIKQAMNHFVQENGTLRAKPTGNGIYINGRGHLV
Test: Nectin-4 competition binding assay (fluorescence polarisation)
Method: Peptides were diluted to an appropriate concentration in assay buffer as described in the direct binding assay with a maximum of 5% DMSO, then serially diluted 1 in 2. Five μL of diluted peptide was added to the plate followed by 10 μL of human Nectin-4, then 10 μL fluorescent peptide added. Measurements were conducted as for the direct binding assay, however the gain was determined prior to the first measurement. Data analysis was in Systat Sigmaplot version 12.0 where the mP values were fit to a user defined cubic equation to generate a Ki value: • f=ymin+(ymax−ymin)/Lig*((Lig*((2*((Klig+Kcomp+Lig+Comp-Prot*c)^2-3*(Kcomp*(Lig-Prot*c)+Klig*(Comp-Prot*c)+Klig*Kcomp))^0.5*COS(ARCCOS((−2*(Klig+Kcomp+Lig+Comp-Prot*c)^3+9*(Klig+Kcomp+Lig+Comp-Prot*c)*(Kcomp*(Lig-Prot*c)+Klig*(Comp-Prot*c)+Klig*Kcomp)−27*(−1*Klig*Kcomp*Prot*c)/(2*((((Klig+Kcomp+Lig+Comp-Prot*c)^2−3*(Kcomp*(Lig-Prot*c)+Klig*(Comp-Prot*c)+Klig*Kcomp))^3)^0.5)))/3))−(Klig+Kcomp+Lig+Comp-Prot*c)))/((3*Klig)+((2*((Klig+Kcomp+Lig+Comp-Prot*c)^2−3*(Kcomp*(Lig-Prot*c)+Klig*(Comp-Prot*c)+Klig*Kcomp))^0.5*COS (ARCCOS ((−2*(Klig+Kcomp+Lig+Comp-Prot*c)^3+9*(Klig+Kcomp+Lig+Comp-Prot*c)*(Kcomp*(Lig-Prot*c)+Klig*(Comp-Prot*c)+Klig*Kcomp)-27*(−1*Klig*Kcomp*Prot*c))/(2*((((Klig+Kcomp+Lig+Comp-Prot*c)^2-3*(Kcomp*(Lig-Prot*c)+Klig*(Comp-Prot+c)+Klig*Kcomp))^3)^0.5))/3)−(Klig+Kcomp+Lig+Comp-Prot*c)))).
“Lig”, “KLig” and “Prot” were all defined values relating to: fluorescent peptide concentration, the Kd of the fluorescent peptide and Nectin concentration respectively.

[1] = competition with fluorescent peptide SEQ ID NO: 217, read-out: Ki

Compound	Ki [1]	Ki
CC[C@H](C)[C@@H]1NC(=O)[C@@H]2CCCN2C(=O)[C@H](Cc2c[nH]c3ccccc23)NC(=O)[C@H](CO)NC(=O)[C@H](Cc2c[nH]c3ccccc23)NC(=O)[C@H](CC(N)=O)NC(=O)[C@H](CCCNC(=N)N)NC(=O)[C@H](CCSC)NC(=O)[C@@H]2CSCCC(=O)N3CN(CN(C3)C(=O)CCSC[C@H](NC(=O)[C@H](C)N)C(=O)N3CCC[C@H]3C(=O)N[C@@H](Cc3ccccc3)C(=O)NCC(=O)N2)C(=O)CCSC[C@@H](C(=O)N[C@@H](C)C(N)=O)NC(=O)[C@H](Cc2c[nH]c3ccccc23)NC1=O [BCY429, A-(SEQ ID NO: 2)-A] (H-ACPFGCMRNWSWPIWCA-NH2; linker 2-6-16 via TATA; N-terminus and C-terminus assumed)	42.6 nM	–
CC[C@H](C)[C@@H]1NC(=O)[C@H](CCCNC(=N)N)NC(=O)CNC(=O)[C@@H]2CSCCC(=O)N3CN(CN(C3)C(=O)CCSC[C@@H](C(=O)N[C@@H](C)C(N)=O)NC1=O)C(=O)CCSC[C@H](NC(=O)[C@H](C)N)C(=O)N[C@@H](Cc1c[nH]c3ccccc13)C(=O)N1CCC[C@H]1C(=O)N[C@@H](CC(C)C)C(=O)N[C@@H](CC(=O)O)C(=O)N1CCC[C@H]1C(=O)N[C@@H](Cc1ccc(O)cc1)C(=O)N[C@@H](Cc1c[nH]c3ccccc13)C(=O)N2 [BCY430, A-(SEQ ID NO: 43)-A] (H-ACWPLDPYWCGRICA-NH2; linker 2-10-14 via TATA; N-terminus and C-terminus assumed)	310 nM	–
CC[C@H](C)[C@@H]1NC(=O)[C@H](CCCNC(=N)N)NC(=O)CNC(=O)[C@@H]2CSCCC(=O)N3CN(CN(C3)C(=O)CCSC[C@@H](C(=O)N[C@@H](C)C(N)=O)NC1=O)C(=O)CCSC[C@H](NC(=O)[C@H](Cc1c[nH]c3ccccc13)NC(=O)[C@H](CC(=O)O)NC(=O)[C@@H](N)CC(=O)O)C(=O)N[C@@H](C)C(=O)N1CCC[C@H]1C(=O)N[C@@H](CC(C)C)C(=O)N[C@@H](CC(=O)O)C(=O)N[C@@H](CC(=O)O)C(=O)N[C@@H](Cc1ccc(O)cc1)C(=O)N[C@@H](Cc1c[nH]c3ccccc13)C(=O)N2 [BCY433, DDW-(SEQ ID NO: 32)-A] (H-DDWCAPLDDYWCGRICA-NH2; linker 4-12-16 via TATA; N-terminus and C-terminus assumed)	69.4 nM	–
CC[C@H](C)[C@@H]1NC(=O)[C@@H]2CCCN2C(=O)[C@H](Cc2c[nH]c3ccccc23)NC(=O)[C@H](CO)NC(=O)[C@H](Cc2c[nH]c3ccccc23)NC(=O)[C@H]([C@@H](C)O)NC(=O)[C@H](CCC(=O)O)NC(=O)[C@H](CCSC)NC(=O)[C@@H]2CSCCC(=O)N3CN(CN(C3)C(=O)CCSC[C@H](NC(=O)[C@H](C)NC(=O)[C@H](CC(=O)O)NC(=O)[C@@H](N)CC(=O)O)C(=O)N3CCC[C@H]3C(=O)N[C@@H](Cc3ccccc3)C(=O)NCC(=O)N2)C(=O)CCSC[C@@H](C(=O)N[C@@H](C)C(N)=O)NC(=O)[C@H](Cc2c[nH]c3ccccc23)NC1=O [BCY3386, DDA-(SEQ ID NO: 45)-A] (H-DDACPFGCMETWSWPIWCA-NH2; linker 4-8-18 via TATA; N-terminus and C-terminus assumed)	80.2 nM	–
CC[C@H](C)[C@@H]1NC(=O)[C@@H]2CCCN2C(=O)[C@H](Cc2c[nH]c3ccccc23)NC(=O)[C@H](CO)NC(=O)[C@H](Cc2c[nH]c3ccccc23)NC(=O)[C@H](CC(=O)O)NC(=O)[C@H](CCCCN)NC(=O)[C@H](CCSC)NC(=O)[C@@H]2CSCCC(=O)N3CN(CN(C3)C(=O)CCSC[C@H](NC(=O)[C@H](CC(N)=O)NC(=O)[C@H](CC(=O)O)NC(=O)[C@@H](N)CO)C(=O)N3CCC[C@H]3C(=O)N[C@@H](Cc3ccccc3)C(=O)NCC(=O)N2)C(=O)CCSC[C@@H](C(=O)N[C@@H](C)C(N)=O)NC(=O)[C@H](Cc2c[nH]c3ccccc23)NC1=O [BCY3387, SDN-(SEQ ID NO: 15)-A] (H-SDNCPFGCMKDWSWPIWCA-NH2; linker 4-8-18 via TATA; N-terminus and C-terminus assumed)	234 nM	–
CC[C@H](C)[C@@H]1NC(=O)[C@@H]2CCCN2C(=O)[C@H](Cc2c[nH]c3ccccc23)NC(=O)[C@H](CO)NC(=O)[C@H](Cc2c[nH]c3ccccc23)NC(=O)CNC(=O)[C@H](CCCNC(=N)N)NC(=O)[C@H](CCSC)NC(=O)[C@@H]2CSCCC(=O)N3CN(CN(C3)C(=O)CCSC[C@H](NC(=O)[C@H](C)NC(=O)[C@@H](NC(=O)[C@@H](N)CC(=O)O)[C@@H](C)O)C(=O)N3CCC[C@H]3C(=O)N[C@@H](Cc3ccccc3)C(=O)NCC(=O)N2)C(=O)CCSC[C@@H](C(=O)N[C@@H](C)C(N)=O)NC(=O)[C@H](Cc2c[nH]c3ccccc23)NC1=O [BCY3388, DTA-(SEQ ID NO: 46)-A] (H-DTACPFGCMRGWSWPIWCA-NH2; linker 4-8-18 via TATA)	–	129 nM
CC[C@H](C)[C@@H]1NC(=O)[C@@H]2CCCN2C(=O)[C@H](Cc2c[nH]c3ccccc23)NC(=O)[C@H](CO)NC(=O)[C@H](Cc2c[nH]c3ccccc23)NC(=O)CNC(=O)[C@H](CO)NC(=O)[C@H](CCSC)NC(=O)[C@@H]2CSCCC(=O)N3CN(CN(C3)C(=O)CCSC[C@H](NC(=O)[C@H](CCC(=O)O)NC(=O)[C@H](CO)NC(=O)[C@@H](N)CC(=O)O)C(=O)N3CCC[C@H]3C(=O)N[C@@H](Cc3ccccc3)C(=O)NCC(=O)N2)C(=O)CCSC[C@@H](C(=O)N[C@@H](C)C(N)=O)NC(=O)[C@H](Cc2c[nH]c3ccccc23)NC1=O [BCY3389, DSE-(SEQ ID NO: 47)-A] (H-DSECPFGCMSGWSWPIWCA-NH2; linker 4-8-18 via TATA; N-terminus and C-terminus assumed)	99.8 nM	–
CC[C@H](C)[C@@H]1NC(=O)[C@@H]2CCCN2C(=O)[C@H](Cc2c[nH]c3ccccc23)NC(=O)[C@H](CO)NC(=O)[C@H](Cc2c[nH]c3ccccc23)NC(=O)CNC(=O)[C@H](CCC(=O)O)NC(=O)[C@H](CCSC)NC(=O)[C@@H]2CSCCC(=O)N3CN(CN(C3)C(=O)CCSC[C@H](NC(=O)[C@H](C)NC(=O)[C@H](CC(=O)O)NC(=O)[C@@H](N)Cc3c[nH]cn3)C(=O)N3CCC[C@H]3C(=O)N[C@@H](Cc3ccccc3)C(=O)NCC(=O)N2)C(=O)CCSC[C@@H](C(=O)N[C@@H](C)C(N)=O)NC(=O)[C@H](Cc2c[nH]c3ccccc23)NC1=O [BCY3390, HDA-(SEQ ID NO: 48)-A] (H-HDACPFGCMEGWSWPIWCA-NH2; linker 4-8-18 via TATA; N-terminus and C-terminus assumed)	302 nM	–
CC[C@H](C)[C@@H]1NC(=O)[C@@H]2CCCN2C(=O)[C@H](Cc2c[nH]c3ccccc23)NC(=O)[C@H](CO)NC(=O)[C@H](Cc2c[nH]c3ccccc23)NC(=O)[C@H](CC(=O)O)NC(=O)[C@H](CCC(=O)O)NC(=O)[C@H](CCSC)NC(=O)[C@@H]2CSCCC(=O)N3CN(CN(C3)C(=O)CCSC[C@H](NC(=O)[C@@H](NC(=O)[C@H](CC(=O)O)NC(=O)[C@@H](N)CCSC)[C@@H](C)O)C(=O)N3CCC[C@H]3C(=O)N[C@@H](Cc3ccccc3)C(=O)NCC(=O)N2)C(=O)CCSC[C@@H](C(=O)N[C@@H](C)C(N)=O)NC(=O)[C@H](Cc2c[nH]c3ccccc23)NC1=O [BCY3391, MDT-(SEQ ID NO: 49)-A] (H-MDTCPFGCMEDWSWPIWCA-NH2; linker 4-8-18 via TATA; N-terminus and C-terminus assumed)	198 nM	–
CC[C@H](C)[C@@H]1NC(=O)[C@@H]2CCCN2C(=O)[C@H](Cc2c[nH]c3ccccc23)NC(=O)[C@H](CO)NC(=O)[C@H](Cc2c[nH]c3ccccc23)NC(=O)CNC(=O)[C@@H]2CCCN2C(=O)[C@H](CCSC)NC(=O)[C@@H]2CSCCC(=O)N3CN(CN(C3)C(=O)CCSC[C@H](NC(=O)CNC(=O)[C@@H]3CCCN3C(=O)[C@@H](N)CC(=O)O)C(=O)N3CCC[C@H]3C(=O)N[C@@H](Cc3ccccc3)C(=O)NCC(=O)N2)C(=O)CCSC[C@@H](C(=O)N[C@@H](C)C(N)=O)NC(=O)[C@H](Cc2c[nH]c3ccccc23)NC1=O [BCY3392, DPG-(SEQ ID NO: 50)-A] (H-DPGCPFGCMPGWSWPIWCA-NH2; linker 4-8-18 via TATA; N-terminus and C-terminus assumed)	36.3 nM	–
